In patent publication USRE42152E1, “Aromatic-linked polyamine macrocyclic compounds with anti-HIV activity” (Genzyme Corporation, priority 1992, dated 2011):
≈ marks a conversion by molar mass, not a printed value. Like-named read-outs stand apart in the source and are kept apart here.

Key:
[1] = tested on: HIV-1 (HTLV-IIIB); assay: microbe, parasite or virus in culture; format: cell-based; settings: MT-4 cells, 100 CCID50, 5 days, MTT
[2] = tested on: MT-4 cells; assay: Cytotoxicity by MTT method in MT-4 cells; format: cell-based
[3] = tested on: HIV-1, strain IIIb; assay: microbe, parasite or virus in culture; format: cell-based
Protocol: Adsorption was allowed for 2 hours at 37° C. […] Test compound was added after stimulation and virus adsorption.
(§1) IC50 and IC90 values were calculated by comparing the p24 antigen concentrations in supernatent of treated, infected cells and uncreated, infected cells at days 11 and 14 post infection.

[4] = tested on: HIV-1, BaL; assay: microbe, parasite or virus in culture; format: cell-based
Protocol: Mononuclear cells were isolated from healthy, HIV-negative donors using Ficoll density separation. Cells (4×10^6/ml) were incubated for 5 days in 48 well plates (Costar) in monocyte medium consisting of RPMII640, supplemented with 20% ECS and 10% human serum. On day 5 non-adherent cells were washed out four times with warm PBS containing 2% human serum.
The monocytotropic strain of HIV-1, BaL, was used for the infection of these monocyte preparations (Pemo et al, 1 Exp Meal, 169, 933, 1989).
Adherent monocytes were exposed to […] of a 1:30 dilution of HIV-1, BaL for 30 minutes subsequently, monocyte medium was added to 1 ml/well. Adsorption was allowed for 24 hours at 37° C. Then, the wells were washed twice in order to remove excess virus and were cultivated in the presence of different drug concentrations. Thus, test compounds were added after adsorption. Every 3 to 4 days post infection the supernatant of the infected cultures was removed and replaced by fresh medium containing the test compound at the particular concentration. The concentration of viral p24 antigen was determined as described above.
as §1

[5] = tested on: Jurkat cells; assay: Growth of exponentially growing cells (cell numbers); format: cell-based
[6] = tested on: HIV-1 strain IIIb; assay: Time-of-addition experiment, MT4 cells infected with HIV-1 IIIb, p24 antigen; format: cell-based; settings: HIV-1 IIIb at high multiplicity, p24 at 29 hours after infection
Protocol: To pinpoint the stage at which the compounds interact with the HIV replicative cycle, a time-of-addition experiment was carried out on MT4 cells infected with HIV-1 strain IIIb at high virus multiplicity to ensure that the virus replicative steps would be synchronised in the whole cell populations. Test compounds wife added 1, 2, 3, . . . 22, 23, 24 hours after infection, and vital p24 antigen production determined 29 hours after infection.
Depending on the stage at which compounds interact and the need for intracellular metabolism, addition of the compounds could be delayed for n hours without loss of activity.

[7] = tested on: MT4 cells
[8] = tested on: MOLT4 cells
[9] = tested on: U937 cell line
[10] = tested on: HIV-2 (LAV-2 ROD); assay: MTT anti-viral screen, MT-4 cells challenged with HIV-2; format: cell-based; settings: Human immunodeficiency virus 2, MT4, 120 h, read-out: IC50 HIV-2 (ROD)
[11] = Cytotoxicity by MTT method in MT-4 cells; format: cell-based; settings: human
[12] = tested on: HIV-1 IIIb, RF, HE and NDK strains; assay: microbe, parasite or virus in culture; settings: Human immunodeficiency virus 1, IIIB, MT4, read-out: IC50 against IIIb, RF, HE and NDK strains
Protocol: The compounds of the invention were tested in a screen by the MTT method (I Vixol Methods […] [1988]). MT-4 cells (2.5×10^4/well) were challenged with HIV-1 (HTLV-IIIB) or HIV-2 (LAV-2 ROD) at a concentration of 100 CCID50 and incubated in the presence of various concentrations of the test compounds, which were added immediately after challenge with the virus. After 5 days culture at 37° C. in a CO2 incubator, the number of viable cells was assessed by the MTT (tetrazolium) method. […] The potential therapeutic usefulness was assessed by calculating a Selectivity Index (SI) corresponding to the ratio of CC50 to IC50.

[13] = tested on: low-passage primary clinical isolates of HIV-1 (K31, D370, K6/2); settings: primary T4 cells; isolates K31 Zaire, D370 California, K6/2 Germany
Protocol: Primary T4 lymphocytes were purified from human spleens obtained from healthy donors by using a commercial kit (“Lympho-Kwik”) which combines reaction of cells with specific monoclonal antibodies and density gradient centrifugation to separate the cells. […] Cells were stimulated with 2 μg/ml PHA for 24 hours. Then they were spun down and infected with HIV-1, strain IIIb, by suspending the cells 10-fold concentrated in virus solution. Adsorption was allowed for 2 hours at 37° C. The inoculum was removed by centrifugation and the cells were re-suspended at their original concentration in fresh culture medium containing IL-2 (40 IE/ml). Test compound was added after stimulation and virus adsorption. Every 3 to 4 days post infection half of the supernatant of the infected cultures was removed and replaced by fresh medium containing the test compound at the particular concentration, The concentration of vital p24 antigen was determined in the supernatent by means of a commercial ELISA kit (Coulter) and served as a parameter for virus production.

[14] = tested on: HIV uncoating (or fusion); assay: Sensitivity of viral RNA from freshly infected MT4 cells to RNase degradation (uncoating); format: cell-based; settings: radiolabelled viral particles, RNA harvested 4 hours after infection
Text: It was reasoned that if tincoating (fusion) was hampered, the viral capsid (or envelope) proteins would remain associated with the viral RNA genome and thus the RNA should be protected against RNase attack.

[15] = tested on: gp120/41 mediated fusion; settings: HIV-1 IIIb infected HUT78 cells with MOLT4 cells
Text: Syncytium formation between chronically infected cells and uninfected cells reflects the gp120/41 mediated fusion process of vital entry.

[16] = tested on: HUT78 cells; settings: concentrations below 300 μg/ml; cell numbers 2, 3 and 4 days after seeding
[17] = Lymphocytes, HIV-1 IIIb, p24, day 11 post infection
[18] = Lymphocytes, HIV-1 IIIb, p24, day 14 post infection
[19] = Monocytes, HIV-1 BaL, p24, day 11 post infection
[20] = Monocytes, HIV-1 BaL, p24, day 14 post infection
[21] = concentrations below 300 μg/ml, cell numbers 2, 3 and 4 days after seeding

Cc1cn([C@H]2C[C@H](N=[N+]=[N-])[C@@H](CO)O2)c(=O)[nH]c1=O [AZT, reference compound]
IC50 HIV-1 (IIIB) [1]: <8 ng/mL
CC50 (HIV-1 (IIIB)) [2]: >1000 ng/mL
IC50 day 11 [3, 17]: 0.45 ng/mL (≈ 1.68 nM)
IC90 day 11 [3, 17]: 2.2 ng/mL (≈ 8.23 nM)
IC50 day 14 [3, 18]: 0.43 ng/mL (≈ 1.61 nM)
IC90 day 14 [3, 18]: 1.1 ng/mL (≈ 4.12 nM)
IC50 day 11 [4, 19]: 1 ng/mL (≈ 3.74 nM)
IC90 day 11 [4, 19]: 1.5 ng/mL (≈ 5.61 nM)
IC50 day 14 [4, 20]: 1 ng/mL (≈ 3.74 nM)
IC90 day 14 [4, 20]: 1.7 ng/mL (≈ 6.36 nM)
TC50 ([5]; Jurkat): 184000 ng/mL (≈ 689000 nM)
n, hours addition could be delayed after infection without loss of activity [6]: ~4 h
TC50 ([7]; MT4): 23000 ng/mL (≈ 86100 nM)
TC50 ([8]; MOLT4): 37000 ng/mL (≈ 138000 nM)
TC50 ([9]; U937): 5000 ng/mL (≈ 18700 nM)

c1cc(CN2CCCNCCNCCCNCC2)ccc1CN1CCCNCCNCCCNCC1 [Compound B, 1,1′-[1,4-phenylenebis(methylene)]bis-1,4,8,11-tetraazacyclotetradecane]
IC50 ([1]; Human immunodeficiency virus 1, IIIB, MT4, 120 h, read-out: IC50 HIV-1 (IIIB)): 6 ng/mL (≈ 11.9 nM)
IC50 [10]: < 10 ng/mL
CC50 at 5 days ([11]; CC50 (HIV-1 (IIIB))): > 500000 ng/mL
CC50 at 5 days ([11]; CC50 (HIV-2 (ROD))): > 500000 ng/mL
IC50 [12]: 2 to 5 ng/mL (≈ 3.98 to 9.94 nM)
IC90 ([3]; Human immunodeficiency virus 1, IIIB, Lymphocyte, primary T4 lymphocytes, stated for both primary cell types, read-out: IC90 values): 1 to 2 ng/mL (≈ 1.99 to 3.98 nM)
IC50 ([3]; Human immunodeficiency virus 1, Lymphocyte, 264 h, Lymphocytes, HIV-1 IIIb, p24, day 11 post infection, read-out: IC50 day 11): < 1 ng/mL
IC90 ([3]; Human immunodeficiency virus 1, Lymphocyte, 264 h, Lymphocytes, HIV-1 IIIb, p24, day 11 post infection, read-out: IC90 day 11): < 1 ng/mL
IC50 ([3]; Human immunodeficiency virus 1, Lymphocyte, 336 h, Lymphocytes, HIV-1 IIIb, p24, day 14 post infection, read-out: IC50 day 14): < 1 ng/mL
IC90 ([3]; Human immunodeficiency virus 1, Lymphocyte, 336 h, Lymphocytes, HIV-1 IIIb, p24, day 14 post infection, read-out: IC90 day 14): 1 ng/mL (≈ 1.99 nM)
IC90 ([4]; Human immunodeficiency virus 1, BAL, Monocyte, primary monocytes, stated for both primary cell types, read-out: IC90 values): 1 to 2 ng/mL (≈ 1.99 to 3.98 nM)
IC50 ([4]; Human immunodeficiency virus 1, Monocyte, 264 h, Monocytes, HIV-1 BaL, p24, day 11 post infection, read-out: IC50 day 11): < 1 ng/mL
IC90 ([4]; Human immunodeficiency virus 1, Monocyte, 264 h, Monocytes, HIV-1 BaL, p24, day 11 post infection, read-out: IC90 day 11): 1.9 ng/mL (≈ 3.78 nM)
IC50 ([4]; Human immunodeficiency virus 1, Monocyte, 336 h, Monocytes, HIV-1 BaL, p24, day 14 post infection, read-out: IC50 day 14): 1.1 ng/mL (≈ 2.19 nM)
IC90 ([4]; Human immunodeficiency virus 1, Monocyte, 336 h, Monocytes, HIV-1 BaL, p24, day 14 post infection, read-out: IC90 day 14): 2.1 ng/mL (≈ 4.18 nM)
inhibition of viral replication [13]: strong inhibitor
inhibition of cell growth [5, 21]: did not inhibit growth
resistance of viral RNA to degradation by RNase [14]: showed resistance to degradation by RNaseA
concentrations required for inhibition of fusion (syncytium formation) [15]: approximately 1 μg/ml
inhibition of cell growth [7, 21]: did not inhibit growth
inhibition of cell growth [8, 21]: did not inhibit growth
inhibition of cell growth [16]: did not inhibit growth
inhibition of cell growth [9, 21]: did not inhibit growth
